Assay results: patent EP3638283B1, “ANTAGONISTS OF CAV2.3 R-TYPE CALCIUM CHANNELS FOR THE TREATMENT OF NEURODEGENERATIVE DISEASES” (Lario Therapeutics Ltd., priority 2017, dated 2018)
Where two headings read alike, the source gives them in different places.

What was measured:
SN DA neurons [1] = conditions: neurotoxin PD-mouse models; pharmacological L-type calcium channel inhibition (Ilijic et al., 2011; Ortner et al., 2017); cited from earlier work
SN DA neurons [2] = assay: Dopamine auto-inhibition of SN DA neuron pacemaker activity, patch-clamp recordings in mouse brain slices; format: cell-based; conditions: isradipine 300nM; dopamine 100 µM
[3] = Parkinson Study, 2013; cited from earlier work
SN DA neurons [4] = conditions: cited from earlier work
SN DA neurons [5] = format: cell-based, mouse
SN DA neurons [6] = format: cell-based, mouse; remark: listed apart in the source
[7] = target: T1, voltage-sensitive A-type Kv4.3 K+ channels (Homo sapiens, UniProt Q9UK17); conditions: Kimm & Bean 2014; cited from earlier work
T1 sequence (Q9UK17 1-655): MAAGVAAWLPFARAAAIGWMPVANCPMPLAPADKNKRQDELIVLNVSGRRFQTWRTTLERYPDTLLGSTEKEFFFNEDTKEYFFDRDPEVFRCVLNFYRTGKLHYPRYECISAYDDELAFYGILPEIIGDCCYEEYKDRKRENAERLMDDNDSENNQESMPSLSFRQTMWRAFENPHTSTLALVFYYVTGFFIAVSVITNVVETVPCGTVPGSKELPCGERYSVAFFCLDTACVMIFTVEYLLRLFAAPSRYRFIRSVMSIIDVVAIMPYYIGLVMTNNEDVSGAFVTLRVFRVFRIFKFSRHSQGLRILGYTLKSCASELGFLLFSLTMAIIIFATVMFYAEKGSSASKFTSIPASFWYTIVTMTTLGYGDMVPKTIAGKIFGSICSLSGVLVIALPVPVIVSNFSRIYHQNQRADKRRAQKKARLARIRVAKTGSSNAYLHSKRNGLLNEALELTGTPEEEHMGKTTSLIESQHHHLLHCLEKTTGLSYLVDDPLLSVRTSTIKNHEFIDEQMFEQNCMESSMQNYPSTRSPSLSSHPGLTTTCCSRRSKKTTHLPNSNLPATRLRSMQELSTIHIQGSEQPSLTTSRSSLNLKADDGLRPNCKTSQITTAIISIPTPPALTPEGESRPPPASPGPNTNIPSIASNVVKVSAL

**Q.** Which results are given for `COC(=O)C1=C(C)NC(C)=C(C(=O)OC(C)C)C1c1cccc2nonc12` (stereo not drawn) [isradipine]?
**A.** SN DA neuroprotection (SN DA neurons [1]): inconclusive findings; sensitized dopamine-autoinhibition of SN DA neurons (SN DA neurons [2]): did not substantially alter; maximal tolerable dosis [3]: 10 mg/day; somatic activity-dependent Ca^2+ oscillations (SN DA neurons [4]; cell body of WT SN DA neurons, in the presence of isradipine (Ortner et al., 2017)): not significantly affected; sensitivity of activity-dependent Ca^2+ oscillations in SN DA neurons to the blocker (SN DA neurons [4]; distal dendrites versus cell-bodies (Guzman et al., 2010; Ortner et al.)): only in distal dendrites but not in the cell-bodies

**Q.** With ω-conotoxin MVIIC [[…]-conotoxin MVIIC] as the molecule, how does the “sensitized dopamine-autoinhibition of SN DA neurons” value (SN DA neurons [5]) read?
**A.** The value was “did not substantially alter”.

**Q.** What does the source list for SNX-482?
**A.** D2-AR responses of adult SN DA neurons (dopamine-autoinhibition) (SN DA neurons [5]): desensitized D2-AR responses; action potential-induced somatic Ca^2+ transients (SN DA neurons [6]): significantly reduced; affinity of inhibition of A-type Kv4.3 K+ channels [7]: high nanomolar affinity
